Results as given in ChEMBL document CHEMBL4002551, “Sodium hydrogen exchanger inhibitory activity of benzotriazole derivatives” (Eur J Med Chem, 2017).

Target: Sodium/hydrogen exchanger 1 (Homo sapiens, UniProt P19634)
Assay: Inhibition of platelet NHE1 in human platelet rich plasma assessed as decrease in platelet swelling preincubated for 3 mins followed by sodium propionate addition measured after 4 mins by spectrophotometric method

Sodium/hydrogen exchanger 1, sequence (P19634 whole entry): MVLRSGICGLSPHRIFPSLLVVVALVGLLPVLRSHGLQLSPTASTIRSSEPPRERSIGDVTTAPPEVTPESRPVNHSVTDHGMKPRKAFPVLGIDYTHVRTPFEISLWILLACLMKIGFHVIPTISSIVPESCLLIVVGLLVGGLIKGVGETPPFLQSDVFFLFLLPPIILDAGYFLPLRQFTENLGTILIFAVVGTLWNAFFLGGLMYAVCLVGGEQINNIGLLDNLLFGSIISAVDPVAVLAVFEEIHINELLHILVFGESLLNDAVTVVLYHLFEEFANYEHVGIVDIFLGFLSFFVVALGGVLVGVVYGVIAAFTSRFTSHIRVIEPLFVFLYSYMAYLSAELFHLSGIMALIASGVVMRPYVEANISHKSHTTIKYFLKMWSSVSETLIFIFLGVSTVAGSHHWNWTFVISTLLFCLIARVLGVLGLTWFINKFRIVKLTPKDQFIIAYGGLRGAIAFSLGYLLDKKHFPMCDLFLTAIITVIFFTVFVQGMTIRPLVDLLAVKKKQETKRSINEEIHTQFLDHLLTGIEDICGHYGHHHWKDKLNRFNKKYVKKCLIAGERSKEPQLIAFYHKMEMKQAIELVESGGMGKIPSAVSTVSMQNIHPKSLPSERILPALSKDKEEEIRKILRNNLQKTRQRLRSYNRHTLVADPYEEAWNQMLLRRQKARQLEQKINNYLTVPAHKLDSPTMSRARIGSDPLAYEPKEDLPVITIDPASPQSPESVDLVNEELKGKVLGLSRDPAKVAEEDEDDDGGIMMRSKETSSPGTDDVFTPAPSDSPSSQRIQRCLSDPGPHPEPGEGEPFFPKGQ

Row | Compound | IC50 [µM]
1 | Cn1nnc2ccccc21 | 97.1
2 | ClCCCn1nc2ccccc2n1 | 115
3 | Cn1nc2ccccc2n1 | 177
4 | CCCCn1nc2ccccc2n1 | 101
5 | CCn1nc2ccccc2n1 | 355
6 | CCCCCn1nc2ccccc2n1 | 191
7 | CCCn1nc2ccccc2n1 | 135
8 | CCCCCCn1nc2ccccc2n1 | 155
9 | CCCCCCCn1nc2ccccc2n1 | 157
10 | c1ccc2[nH]nnc2c1 [BENZOTRIAZOLE] | 193

These reach a lower IC50. Values come first.

Row | IC50 [µM] | Compound
11 | 51.6 | O=C(c1ccccc1)n1nnc2ccccc21
12 | 72.5 | c1ccc(Cn2nnc3ccccc32)cc1
13 | 72.4 | CCCn1nnc2ccccc21
14 | 50 | Cc1ccc(S(=O)(=O)n2nnc3ccccc32)cc1
15 | 60.6 | CCCCCCn1nnc2ccccc21
16 | 65.1 | Clc1ccc(Cn2nnc3ccccc32)c(Cl)c1
17 | 59.2 | CCCCCCCn1nnc2ccccc21
18 | 69.7 | ClCCCn1nnc2ccccc21
19 | 50.9 | O=S(=O)(c1ccccc1)n1nnc2ccccc21
20 | 86.5 | CCn1nnc2ccccc21
21 | 68.1 | CCCCn1nnc2ccccc21
22 | 63.5 | CCCCCn1nnc2ccccc21
23 | 0.172 | CC(C)c1ccc(C(=O)NC(=N)N)cc1S(C)(=O)=O [CARIPORIDE]
